Laboratory results published in patent publication US20230111925A1, “FIBROTIC DISEASE MECHANISM AND THERAPEUTIC DRUG THEREFOR” (GUANGZHOU WOMEN AND CHILDREN'S MEDICAL CENTER, priority 2020, published 2023).
Counter-ions that a name gives are not always drawn.

Experiments:
[1] = system: DSS-induced mouse colitis; assay: DSS-induced mouse colitis
[2] = system: lung epithelial cells A549 infected with SEV; assay: IFN-β induction in SeV-infected lung epithelial cells A549; assay type: cell-based; settings: vs DMSO
Text: Total RNA was extracted from cells, and the mRNA level of IFN-β was detected by fluorescence quantitative PCR. The level of IFN-β in the supernatants was detected by ELISA. […] The cells were collected and total RNA was collected from the cells, and the mRNA level of IFN-β was detected by fluorescence quantitative PCR.

RNA virus VSV = assay type: in vivo, mice; settings: Dipyridamole 30 mg/kg i.p. from day -3; VSV 10^8 PFU/g tail vein day 0 and day 4
[3] = system: normal intestinal fibroblast CCD-18Co; assay: Proliferation and apoptosis of normal intestinal fibroblast CCD-18Co; assay type: cell-based
[4] = system: CCD-18Co cells stimulated by TGF-β and TNF-α; assay: Intestinal interstitial fibrosis model in CCD-18Co cell line (Western blot); assay type: cell-based; settings: 0.5 μM ITI-214 added one hour in advance; TGF-β 10 ng/ml and TNF-α 40 ng/ml, 48 hours
[5] = Roflumilast 3 mg/kg i.p. twice a day days 4-9, vs model group
[6] = 10 mg/kg i.p. twice a day days 4-15, 2% DSS days 0-10
[7] = 10 mg/kg i.p. twice a day days 4-15, 2% DSS days 0-10, vs model group
[8] = Icariin 50 mg/kg i.p. twice a day days 4-7, vs model group
[9] = 5 mg/kg i.p. twice a day days 4-15, 2% DSS days 0-10, vs model group
[10] = Mardepodect hydrochloride 1 mg/kg i.p. twice a day days 4-7, vs model group
[11] = A549, SEV MOI=1, 0, 16 and 24 hours
[12] = PF-04447943 3 mg/kg i.p. twice a day days 4-12, vs model group
[13] = ITI214 3 mg/kg i.p. twice a day days 4-8, 2% DSS days 0-7
[14] = PF-05085727 3 mg/kg i.p. twice a day days 4-9
[15] = PF-05085727 3 mg/kg i.p. twice a day days 4-9, vs model group

O=C(Nc1c(Cl)cncc1Cl)c1ccc(OC(F)F)c(OCC2CC2)c1 [Roflumilast]
weight changes ([1]; Roflumilast 3 mg/kg i.p. twice a day days 4-9, 2% DSS days 0-7): did not decrease significantly
colonic tissue structure, epithelial structure (H&E) [1, 5]: significantly restore
fibrosis (colon H&E) [1, 5]: reduced
infiltration of inflammatory cells (colon H&E) [1, 5]: decreased

Cc1[nH]c(=O)c(C#N)cc1-c1ccncc1 [Milirinone]
weight changes [1, 6]: did not decrease significantly
colonic tissue structure, epithelial structure (H&E) [1, 7]: significantly restore
fibrosis (colon H&E) [1, 7]: reduced
infiltration of inflammatory cells (colon H&E) [1, 7]: decreased

Icariin
weight loss of colitis ([1]; Icariin 50 mg/kg i.p. twice a day days 4-7, 2% DSS days 0-7, from day 6): significantly inhibited
colonic tissue structure, epithelial structure (H&E) [1, 8]: significantly restore
fibrosis (colon H&E) [1, 8]: reduced
infiltration of inflammatory cells (colon H&E) [1, 8]: decreased

O=C1CCc2cc(OCCCCc3nnnn3C3CCCCC3)ccc2N1 [Cilostazol]
weight changes [1, 6]: did not decrease significantly
colonic tissue structure, epithelial structure (H&E) [1, 7]: significantly restore
fibrosis (colon H&E) [1, 7]: reduced
infiltration of inflammatory cells (colon H&E) [1, 7]: decreased

COc1ccc(C(=O)N2CCN(c3ccc4c(c3)CCC(=O)N4)CC2)cc1OC [Vesnarinone]
weight changes ([1]; 5 mg/kg i.p. twice a day days 4-15, 2% DSS days 0-10): did not decrease significantly
colonic tissue structure, epithelial structure (H&E) [1, 9]: significantly restore
fibrosis (colon H&E) [1, 9]: reduced
infiltration of inflammatory cells (colon H&E) [1, 9]: decreased

Cn1cc(-c2ccncc2)c(-c2ccc(OCc3ccc4ccccc4n3)cc2)n1 [Mardepodect hydrochloride]
weight changes ([1]; Mardepodect hydrochloride 1 mg/kg i.p. twice a day days 4-7, 2% DSS days 0-7): did not decrease the weight significantly
colonic tissue structure, epithelial structure (H&E) [1, 10]: significantly restore
fibrosis (colon H&E) [1, 10]: reduced
infiltration of inflammatory cells (colon H&E) [1, 10]: decreased

OCCN(CCO)c1nc(N2CCCCC2)c2nc(N(CCO)CCO)nc(N3CCCCC3)c2n1 [Dipyridamole]
mRNA level of the type I interferon IFN-β (fluorescence quantitative PCR) ([2]; A549, PDE inhibitor 5 μM, SEV MOI=1, 24 hours): significantly up-regulate
mRNA level of IFN-β (fluorescence quantitative PCR) [2, 11]: significantly promoted
protein level of IFN-β in the supernatants (ELISA) [2, 11]: significantly promoted
infiltration of pulmonary inflammation in lung and alveolar injury (H&E staining of mouse lung) (RNA virus VSV): significantly reduced
apoptosis of fibroblasts (flow early/late apoptosis analysis) ([3]; 20 μM DIP, 48 hours): promoted
proliferation of fibroblasts (crystal violet staining) ([3]; 20 μM DIP, 48 hours): inhibited

C[C@@H]1CN(Cc2ncccn2)C[C@H]1c1nc2c(cnn2C2CCOCC2)c(=O)[nH]1 [PF-04447943]
colon length ([1]; PF-04447943 3 mg/kg i.p. twice a day days 4-12): significantly improve
weight loss ([1]; PF-04447943 3 mg/kg i.p. twice a day days 4-12, 2% DSS days 0-10, from day 6): significantly inhibited
survival rate ([1]; PF-04447943 3 mg/kg i.p. twice a day days 4-12, 2% DSS days 0-10, model group 40%): 100%
disease activity index score, experimental colitis ([1]; PF-04447943 3 mg/kg i.p. twice a day days 4-12, from day 6): significantly inhibited
colonic tissue structure, epithelial structure (H&E) [1, 12]: significantly restore
fibrosis (colon H&E) [1, 12]: reduced
infiltration of inflammatory cells (colon H&E) [1, 12]: decreased

CN1C(=O)c2c(nn(Cc3ccc(-c4cccc(F)n4)cc3)c2Nc2ccccc2)N2C1=N[C@@H]1CCC[C@@H]12.O=P(O)(O)O [ITI214]
apoptosis of fibroblasts (flow early/late apoptosis analysis) ([3]; 0.5 μM ITI-214, 48 hours): promoted
proliferation of fibroblasts ([3]; 0.5 μM ITI-214, 48 hours): effectively inhibit
protein expression levels of α-SMA, COL1A2 and FAP in cells (Western blot) [4]: inhibited
colon length [1, 13]: significantly improved
disease activity index score (DAI score), severity of colitis [1, 13]: significantly reduced
fibrosis (colon H&E) [1, 13]: inhibits
infiltration of inflammatory cells (colon H&E) [1, 13]: reduces
structures of colon epithelium and lamina propria (H&E) [1, 13]: significantly restored
weight changes of mice ([1]; ITI214 3 mg/kg i.p. twice a day days 4-8, 2% DSS days 0-7, day 7): significantly increased
survival rate ([1]; ITI214 3 mg/kg i.p. twice a day days 4-8, 2% DSS days 0-7, model group 50%): 80%

Cn1ncc(-c2nn(C)c3ncnc(N4CCC4)c23)c1-c1ccc(C(F)(F)F)cc1 [PF-05085727]
colon length [1, 14]: significantly improved
disease activity index score, activity degree of the disease [1, 14]: did not aggravate
weight changes ([1]; PF-05085727 3 mg/kg i.p. twice a day days 4-9, 2% DSS days 0-7): did not decrease significantly
survival rate ([1]; PF-05085727 3 mg/kg i.p. twice a day days 4-9, 2% DSS days 0-7, model group 40%): 100%
colonic tissue structure, epithelial structure (H&E) [1, 15]: significantly restored
fibrosis (colon H&E) [1, 15]: reduced
inflammatory cells (colon H&E) [1, 15]: reduced
